# Data reported in patent publication US12029738B2, “Antiproliferative compounds and methods of use thereof” (Celgene Corporation, priority 2017, dated 2024).
# Entries after “also recorded” stand apart in the source; their conditions may differ.
# Assays:
# [1] = test system: lenalidomide-resistant NCI-H929 (H929-1051) multiple myeloma/plasmacytoma tumors; experiment: H929-1051 xenograft, Compound 2 alone and with bortezomib; assay type: in vivo, mouse
# [2] = test system: lenalidomide-resistant multiple myeloma cells (H929-1051); experiment: Apoptosis induction with dexamethasone combinations (Caspase-Glo 3/7, 72 h); assay type: cell-based, human
# Experimental: Methods: Dexamethasone was assessed for its ability to induce apoptosis as a single agent or in combination with Compound 2, pomalidomide, or lenalidomide. Induction of apoptosis was measured using Caspase-Glo in lenalidomide-resistant multiple myeloma cells (H929-1051). Dexamethasone was dispensed at 20 concentrations, using an acoustic dispenser. The test articles were added as single concentrations onto the dexamethasone wells with a Hewlett-Packard D300 Digital Dispenser. The final concentrations of compounds for the assay were: dexamethasone (0.8 μM to 0.00002 μM), lenalidomide (1 μM), pomalidomide (0.1 μM), and Compound 2 (0.001, 0.01, or 0.1 μM). Cells were dispensed into the assay plates with a Multidrop dispenser and duplicate plates were made for the assay. The apoptosis read was taken at 72 h post-compound treatment using a Caspase-Glo 3/7 and CellTiter-Glo Assays. The Caspase-Glo 3/7 luminescence was normalized to the CellTiter-Glo luminescence to account for differences in cell number. The fold change of the treated sample was calculated as follows: normalized caspase of treated sample/average of normalized DMSO control.
# H929-1051 = experiment: Coculture of compound-treated anti-CD3-activated PBMCs with untreated myeloma cells; assay type: cell-based; conditions: Homo sapiens, untreated H929-1051, T:E 1:5, 24 h, read-out: IC50 tumor cell lysis by compound-treated PBMCs
# Experimental: (§1) Coculture Assays with Compound-treated Human Peripheral Blood Mononuclear Cells and Untreated Myeloma Cell Lines. Methods: Cell Culture. All myeloma cell lines were kept in log phase, and cell density and viability were monitored by trypan blue exclusion using the Vi-CELL XR cell viability analyzer.
# (§2) PBMC Treatment Assay Procedure. Ninety-six-well dishes were pre-coated with anti-CD3 antibody (OKT3, 3 μg/mL) and incubated at 4° C. overnight before the start of the experiment. Frozen PBMC donors, were thawed at 37° C. for 2 minutes in RPMI medium with 10% FBS and cell counts and viability were measured on the Vi-CELL® (Beckman Coulter). Peripheral blood mononuclear cells were washed and diluted to 1×10^6 cells/mL and dispensed to the compound-treated plates in a total volume of 200 μL. Cells were incubated with compounds for 2 h before being transferred onto anti-CD3-coated plates and incubated for an additional 72 h at 37° C. After 72 h, the PBMCs were centrifuged, and cells were washed twice in RPMI medium+10% FBS. […] Peripheral blood mononuclear cells were counted and added to the MM cells at a target:effector (T:E) ratio of 1:5. After 24 h co-culture, specific target cell lysis by PBMCs was measured using Annexin V-AF647 and 7-AAD according to manufacturer's instructions and samples were run on the Attune NxT Cytometer (Thermo Fisher).
# NCI-H929 = experiment: as above; assay type: cell-based; conditions: Homo sapiens, T:E 1:5, 24 h, read-out: IC50 tumor cell lysis by compound-treated PBMCs
# Experimental: as §1, §2
# THLE-2 = experiment: Anti-proliferative counter-screen (CellTiter-Glo, 72 h); assay type: cell-based; conditions: Homo sapiens
# [3] = test system: CD38 expression in MM cell lines; experiment: Cell surface CD38 expression in MM cells (72 h pretreatment); assay type: cell-based, human; conditions: 72 h treatment
# Experimental: FIG. 17. Compound 2 upregulates CD38 expression in MM cell lines. The cell surface expression of CD38 was evaluated in MM cells pretreated with Compound 2 or pomalidomide for 72 h. The dose response effects are shown for OPM-2 and OPM-2.P10 cell lines.
# The extent of CD38 expression was greater with Compound 2 and occurred at lower concentrations compared to pomalidomide. MM cells+/−Compound 2 or pomalidomide pretreatment were evaluated in ADCC assays with daratumumab. […] Compound 2 treated cells were also more sensitive to daratumumab-mediated ADCC compared to pomalidomide treated cells. The ability of Compound 2 and pomalidomide to modulate daratumumab-mediated ADCP was also tested.
# CYP1A2 = target: T1, CYP1A2 (Homo sapiens, UniProt P05177); experiment: CYP inhibition in pooled human liver microsomes; assay type: in vitro ADME; conditions: up to 30 μM
# T1 construct: from tissue; host or cells: pooled human liver microsomes
# Experimental: (§3) Methods. […] In addition, the compounds were evaluated for their potential to act as a time-dependent inhibitors at the same concentrations mentioned above. […] In addition to appropriate vehicle controls, known direct inhibitors and time-dependent inhibitors of CYP isoforms were included as positive controls. Following the incubation, concentrations of probe substrate metabolites were quantified using established LC/MS/MS methods. The extent of inhibition was expressed as the percentage of control activity.
# CYP2C8 = target: T2, CYP2C8 (Homo sapiens, UniProt P10632); experiment: CYP inhibition in pooled human liver microsomes; assay type: in vitro ADME; conditions: up to 30 μM
# T2 construct: from tissue; host or cells: pooled human liver microsomes
# Experimental: as §3
# CYP2A6 = target: T3, CYP2A6 (Homo sapiens, UniProt P11509); experiment: CYP inhibition in pooled human liver microsomes; assay type: in vitro ADME; conditions: up to 30 μM
# T3 construct: from tissue; host or cells: pooled human liver microsomes
# Experimental: as §3
# CYP2E1 = target: T4, CYP2E1 (Homo sapiens, UniProt P05181); experiment: CYP inhibition in pooled human liver microsomes; assay type: in vitro ADME; conditions: up to 30 μM
# T4 construct: from tissue; host or cells: pooled human liver microsomes
# Experimental: as §3
# CYP2D6 = target: T5, CYP2D6 (Homo sapiens, UniProt P10635); experiment: CYP inhibition in pooled human liver microsomes; assay type: in vitro ADME; conditions: up to 30 μM
# T5 construct: from tissue; host or cells: pooled human liver microsomes
# Experimental: as §3
# [4] = 30 minute preincubation with or without NADPH
# T4 sequence (P05181 whole entry): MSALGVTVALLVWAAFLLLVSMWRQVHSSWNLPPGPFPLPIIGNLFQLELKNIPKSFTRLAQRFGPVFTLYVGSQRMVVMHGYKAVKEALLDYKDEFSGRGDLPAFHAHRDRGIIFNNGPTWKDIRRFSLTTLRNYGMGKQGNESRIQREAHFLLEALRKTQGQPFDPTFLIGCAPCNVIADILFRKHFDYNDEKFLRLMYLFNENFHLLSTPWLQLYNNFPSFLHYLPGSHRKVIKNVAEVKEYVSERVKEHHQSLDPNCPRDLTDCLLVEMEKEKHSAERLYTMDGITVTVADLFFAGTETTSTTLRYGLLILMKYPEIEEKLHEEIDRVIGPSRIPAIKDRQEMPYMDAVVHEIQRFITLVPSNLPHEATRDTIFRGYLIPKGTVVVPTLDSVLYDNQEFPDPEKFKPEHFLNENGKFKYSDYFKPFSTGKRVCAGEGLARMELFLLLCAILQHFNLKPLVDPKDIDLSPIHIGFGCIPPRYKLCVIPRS
# T3 sequence (P11509 whole entry): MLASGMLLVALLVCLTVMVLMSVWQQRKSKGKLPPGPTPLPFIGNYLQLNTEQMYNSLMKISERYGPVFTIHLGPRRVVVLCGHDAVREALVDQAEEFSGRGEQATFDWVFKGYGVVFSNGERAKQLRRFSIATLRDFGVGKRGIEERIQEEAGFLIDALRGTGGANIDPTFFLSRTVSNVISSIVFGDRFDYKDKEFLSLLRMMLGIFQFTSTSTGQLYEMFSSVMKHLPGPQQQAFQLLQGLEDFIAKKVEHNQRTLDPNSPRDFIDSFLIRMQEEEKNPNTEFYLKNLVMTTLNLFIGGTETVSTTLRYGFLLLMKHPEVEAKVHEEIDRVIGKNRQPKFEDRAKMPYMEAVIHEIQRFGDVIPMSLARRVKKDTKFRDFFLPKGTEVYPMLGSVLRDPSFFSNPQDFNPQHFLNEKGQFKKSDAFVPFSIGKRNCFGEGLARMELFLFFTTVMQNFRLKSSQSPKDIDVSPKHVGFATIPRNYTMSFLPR
# T2 sequence (P10632 whole entry): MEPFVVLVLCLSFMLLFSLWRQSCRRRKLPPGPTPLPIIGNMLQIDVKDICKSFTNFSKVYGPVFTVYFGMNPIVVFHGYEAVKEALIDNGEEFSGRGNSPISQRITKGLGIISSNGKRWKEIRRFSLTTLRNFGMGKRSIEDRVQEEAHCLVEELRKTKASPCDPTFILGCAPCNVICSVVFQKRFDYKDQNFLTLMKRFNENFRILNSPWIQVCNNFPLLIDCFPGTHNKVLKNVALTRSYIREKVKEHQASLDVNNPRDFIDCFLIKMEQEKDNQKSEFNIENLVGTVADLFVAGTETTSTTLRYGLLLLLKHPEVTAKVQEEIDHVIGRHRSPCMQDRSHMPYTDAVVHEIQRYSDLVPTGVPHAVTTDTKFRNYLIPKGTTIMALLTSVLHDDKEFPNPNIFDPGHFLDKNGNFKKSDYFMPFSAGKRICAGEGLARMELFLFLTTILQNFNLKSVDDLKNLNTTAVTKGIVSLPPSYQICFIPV
# T1 sequence (P05177 whole entry): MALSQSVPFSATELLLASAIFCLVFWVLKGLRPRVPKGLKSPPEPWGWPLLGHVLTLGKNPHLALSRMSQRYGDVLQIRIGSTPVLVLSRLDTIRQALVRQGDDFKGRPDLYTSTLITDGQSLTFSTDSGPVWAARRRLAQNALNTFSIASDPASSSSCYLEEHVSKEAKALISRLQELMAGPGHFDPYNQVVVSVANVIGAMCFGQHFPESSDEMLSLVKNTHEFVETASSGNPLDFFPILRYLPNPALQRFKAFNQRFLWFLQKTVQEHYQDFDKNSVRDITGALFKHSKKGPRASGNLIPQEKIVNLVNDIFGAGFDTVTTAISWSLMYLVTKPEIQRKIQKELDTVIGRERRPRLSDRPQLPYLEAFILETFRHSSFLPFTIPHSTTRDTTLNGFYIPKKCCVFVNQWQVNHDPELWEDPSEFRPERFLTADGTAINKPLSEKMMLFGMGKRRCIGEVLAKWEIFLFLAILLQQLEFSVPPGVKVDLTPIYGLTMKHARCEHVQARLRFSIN
# T5 sequence (P10635 whole entry): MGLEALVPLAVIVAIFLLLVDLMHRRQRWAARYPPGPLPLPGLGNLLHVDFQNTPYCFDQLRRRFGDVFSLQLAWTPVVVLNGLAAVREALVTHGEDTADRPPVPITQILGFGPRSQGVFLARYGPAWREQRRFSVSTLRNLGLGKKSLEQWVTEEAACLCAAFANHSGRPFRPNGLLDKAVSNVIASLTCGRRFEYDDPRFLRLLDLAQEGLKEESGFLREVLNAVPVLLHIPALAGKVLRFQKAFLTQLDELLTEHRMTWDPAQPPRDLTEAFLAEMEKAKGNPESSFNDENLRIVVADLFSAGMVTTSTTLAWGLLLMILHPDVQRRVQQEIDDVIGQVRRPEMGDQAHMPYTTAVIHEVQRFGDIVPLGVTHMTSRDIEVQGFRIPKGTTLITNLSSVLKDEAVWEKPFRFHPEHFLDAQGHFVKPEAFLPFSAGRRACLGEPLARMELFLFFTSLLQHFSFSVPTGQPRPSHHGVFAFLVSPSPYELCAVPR
compound,measurement,setting,value
"N#Cc1ccc(N2CCN(Cc3ccc(COc4cccc5c4CN([C@H]4CCC(=O)NC4=O)C5=O)cc3)CC2)c(F)c1 [Compound 2, (S)-4-(4-(4-(((2-(2,6-dioxopiperidin-3-yl)-1-oxoisoindolin-4-yl)oxy)methyl)benzyl)piperazin-1-yl)-3-fluorobenzonitrile]",tumor volume reduction (TVR),"[1]; Compound 2 1 mg/kg qd×3 in combination with bortezomib 1 mg/kg single dose, day 50",98%
same,combination antitumor activity (fractional product method),[1]; Compound 2 1 mg/kg with second agent 1 mg/kg,synergistic
same,animals that became tumor free and remained tumor free,"[1]; combination of Compound 2 and bortezomib, by day 53",7 out of 9
same,tumor growth inhibition / tumor volume reduction (TVR),"[1]; single agent Compound 2 1 mg/kg qd×3 (days 31-33), day 50",44%
same,day by which tumors reached approximately 2000 mm^3,"[1]; single agent, 1 mg/kg",58 days
same,combination effect with dexamethasone on cell viability and apoptosis,"[2]; Compound 2 0.001, 0.01, 0.1 μM",synergized with dexamethasone
same,shift of the onset of dexamethasone activity in the presence of Compound 2,[2]; caspase-3 induction,1 log
same,IC50,H929-1051,0.2 nM
same,IC50,NCI-H929,5 nM
same,IC50,THLE-2,> 10000 nM
same,CD38 expression in MM cells,[3],dose-dependent increase of CD38 expression
O=C1CC[C@H](N2Cc3c(OCc4ccc(CN5CCN(c6ccc(F)cc6F)CC5)cc4)cccc3C2=O)C(=O)N1 [Compound B],time-dependent inhibition of CYP1A2,CYP1A2; [4],little to no time-dependent inhibition; also recorded: not a time-dependent inhibitor
same,direct inhibition of CYP1A2,CYP1A2; human liver microsomes,up to 30%
same,time-dependent inhibition of CYP2C8,CYP2C8; [4],little to no time-dependent inhibition; also recorded: not a time-dependent inhibitor
same,direct inhibition of CYP2C8,CYP2C8; human liver microsomes,up to 30%
same,time-dependent inhibition of CYP2A6,CYP2A6; [4],little to no time-dependent inhibition; also recorded: not a time-dependent inhibitor
same,direct inhibition of CYP2A6,CYP2A6; human liver microsomes,up to 30%
same,time-dependent inhibition of CYP2E1,CYP2E1; [4],little to no time-dependent inhibition; also recorded: not a time-dependent inhibitor
same,direct inhibition of CYP2E1,CYP2E1; human liver microsomes,up to 30%
same,time-dependent inhibition of CYP2D6,CYP2D6; [4],little to no time-dependent inhibition; also recorded: not a time-dependent inhibitor
same,direct inhibition of CYP2D6,CYP2D6; human liver microsomes,up to 30%
"Nc1cccc2c1C(=O)N(C1CCC(=O)NC1=O)C2=O (stereo not shown) [Pomalidomide, pomalidomide]",CD38 expression in MM cells,[3],dose-dependent increase of CD38 expression
